Residues, ends and D or L forms follow the SMILES beside them.
Tests used:
proteinase K = biological target: T1, proteinase K (Parengyodontium album, UniProt P06873); assay: Peptide stability to proteases (SDS-PAGE); format: in vitro ADME, fungal; conditions: peptide:protease 40:1, 24 hours, 37° C.
T1 construct: purchased Sigma or Fisher
Description: When degraded, no peptide band could be detected on a 5% stacking/18% resolving tricine gel after 2-4 hours incubation at 37° C. Briefly, a solution (100 μL) containing 250 μM peptide and 6.25 μM protease (Sigma or Fisher) in 10 mM PBS buffer (pH 8) was incubated at 37° C. (peptide/protease molar ratio, 40:1). Aliquots (10 μL) of the reaction solutions were taken at 0, 6, and 24 hours and immediately mixed with 10 μL of 2× SDS loading buffer followed by boiling for 5 minutes to stop the reaction. […] After electrophoresis, the gel was stained by Brilliant Blue R-250 (Fisher) and destained to view the peptide bands.

S. aureus USA300 [1] = assay: Killing kinetics by colony counting; format: cell-based, Staphylococcus aureus; conditions: 10^5 CFU S. aureus USA300, colony counting
Description: Killing kinetic experiments were conducted similar to antibacterial assays described above with the following modifications (Wang et al. (2012) Antimicrob. Agents Chemother., 56:845-856). Aliquots of cultures (10^5 CFU) treated with TetraF2W peptides were taken at 15, 30, 50, 90, and 120 minutes, diluted 100-fold, and plated on Luria-Bertani (LB) agar plates. Colonies were counted after overnight incubation at 37° C.

S. aureus USA300 [2] = assay: Propidium iodide membrane permeation; format: cell-based, Staphylococcus aureus
Description: Fluorescence spectroscopy was also used to follow bacterial killing. In brief, a serially diluted 10× peptide (10 μL) was made in 96-well coming COSTAR microtiter plates. Propidium iodide (2 μL) was added at 50 μM to each well which was finally incubated with S. aureus USA300 bacteria (88 μL at a final OD600 ˜0.1) with continuous shaking at 100 rpm, 37° C. in a FLUOstar® Omega (BMG LABTECH Inc, NC) microplate reader. The plates were read every 5 minutes for a total duration of 2 hours with excitation and emission wavelengths at 584 nm and 620 nm respectively. Plots were made using averaged readings from duplicated experiments after subtraction of the media control.

S. aureus USA300 [3] = assay: Inhibition of bacterial attachment (XTT); format: cell-based, Staphylococcus aureus; conditions: 25 μM
Description: Three types of experiments were conducted to evaluate the anti-biofilm activity of these peptides against S. aureus USA300, which was grown in tryptic soy broth (TSB) media in flat bottom, 96-well, polystyrene microtiter plates (Mishra et al. (2015) RSC Advances 5:59758-59769; Dean et al. (2011) BMC Microbiol., 11:114).
The first experiment measures the ability of the peptide to inhibit bacterial attachment, the initial step for biofilm formation. In short, overnight cultures of S. aureus USA300 were grown in TSB media to an optical density (600 nm) of ˜1.0. 180 μL of this culture was added to each well of the microtiter plates containing 20 μL of 10× peptide solution. The plates are then incubated at 37° C. for 1 hour. Media with bacteria were then pipetted out and chambers were washed with 1×PBS to remove non-adherent cells. The inhibition of biofilms was estimated by XTT [2,3-bis(2-methyloxy-4-nitro-5-sulfophenyl)-2H-tertazolium-5-carboxanilide] assay by following the manufacturer's instructions with modifications. 180 μL of fresh TSB and 20 μL of XTT solution was added to each well and the plates were again incubated for 2 hours at 37° C. Absorbance at 450 nm (only media with XTT containing wells served as the blank) was obtained using a Chromate® microtiter plate reader. […]

S. aureus USA300 [4] = format: cell-based, Staphylococcus aureus; conditions: USA300, 20 h
Description: (§1) The antimicrobial activity of peptides was evaluated using a standard broth microdilution protocol. In brief, exponential phase bacteria at 10^6 CFU were incubated with serially diluted peptides overnight for ˜20 hours at 37° C. The plates were read on a ChroMate® 4300 Microplate Reader at 630 nm (GMI, Ramsey, Minn.).

E. coli ATCC 25922 = format: cell-based, Escherichia coli; conditions: ATCC 25922, 20 h
Description: as §1

human red blood cells = assay: Hemolytic ability (Example 3); format: cell-based; conditions: concentration that causes 50% hemolysis
How it was run: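 Human red blood cells were washed three times in PBS, diluted to 2%, exposed to peptide for one hour at 37 °C and centrifuged. Hemoglobin in the supernatant was read at 545 nm. Percent lysis is relative to 1% Triton X-100 (100%) and PBS (0%).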

T1 sequence (P06873 106-384): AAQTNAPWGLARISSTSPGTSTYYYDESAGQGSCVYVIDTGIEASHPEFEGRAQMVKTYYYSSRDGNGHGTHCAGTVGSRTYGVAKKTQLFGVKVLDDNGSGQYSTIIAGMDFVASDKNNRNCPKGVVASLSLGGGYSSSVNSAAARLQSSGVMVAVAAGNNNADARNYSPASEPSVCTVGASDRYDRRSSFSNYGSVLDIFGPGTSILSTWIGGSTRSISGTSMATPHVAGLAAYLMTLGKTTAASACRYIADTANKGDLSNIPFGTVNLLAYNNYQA

SMILES	stability to fungal proteinase K (proteinase K)	time in which all the bacteria were killed (S. aureus USA300 [1])	propidium iodide fluorescence change after treatment (S. aureus USA300 [2])	reduction of adherence of bacterial cells (S. aureus USA300 [3])	S. aureus (MIC) (S. aureus USA300 [4])	E. coli (MIC) (E. coli ATCC 25922)	HL50 (human red blood cells)
CC[C@H](C)[C@H](NC(=O)[C@H](CCCCN)NC(=O)[C@H](CCCNC(=N)N)NC(=O)[C@H](CC(C)C)NC(=O)[C@H](Cc1c[nH]c2ccccc12)NC(=O)[C@H](Cc1c[nH]c2ccccc12)NC(=O)[C@@H](N)Cc1c[nH]c2ccccc12)C(=O)N[C@@H](Cc1c[nH]c2ccccc12)C(N)=O [TetraF2W-RK, WWWLRKIW] (H-WWWLRKIW-NH2; N-terminus assumed)	completely degraded						
CC[C@H](C)[C@H](NC(=O)[C@H](CCCNC(=N)N)NC(=O)[C@H](CCCNC(=N)N)NC(=O)[C@H](CC(C)C)NC(=O)[C@H](Cc1c[nH]c2ccccc12)NC(=O)[C@H](Cc1c[nH]c2ccccc12)NC(=O)[C@@H](N)Cc1c[nH]c2ccccc12)C(=O)N[C@@H](Cc1c[nH]c2ccccc12)C(N)=O [TetraF2W-RR, WWWLRRIW] (H-WWWLRRIW-NH2; N-terminus assumed)		90 min	most effective in damaging the membranes	83%	3.1 µM	6.2 µM	35 µM

— patent US20190048052A1, “ANTI-MICROBIAL PEPTIDES AND COATINGS” (Board of Regents of the University of Nebraska, priority 2016, published 2019)
